# In PubChem BioAssay AID687022 (Broad Institute, 2013):
# Active and inactive are the calls of the source.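 The calls were made as follows: active = Fitted curve of melting temperature shift crosses the 1.0 threshold at or below the sample's highest valid tested concentration; inconclusive = Flat fit with activity 30 to 70, or invalid fit; inactive = Opposite direction, flat within 30, or no crossing.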
# Molecular target: Fibroblast growth factor 22 (Homo sapiens) (UniProt Q9HCT0)
# Test: FGF22 ligand-induced thermal stabilization – biophysical, thermal shift, cherry-pick, FGF22 synaptogenesis inhibitor project, dose response (AID 687022)
# Conditions: recombinant FGF22 thermal shift, SYPRO orange melting
# Fibroblast growth factor 22 (Homo sapiens), sequence (Q9HCT0 whole entry, looked up): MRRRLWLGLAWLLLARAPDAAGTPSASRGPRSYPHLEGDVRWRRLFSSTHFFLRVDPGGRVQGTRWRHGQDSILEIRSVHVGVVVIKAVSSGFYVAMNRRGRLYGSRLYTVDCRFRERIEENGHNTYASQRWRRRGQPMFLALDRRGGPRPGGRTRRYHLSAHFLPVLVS
row,Structure (SMILES),AbsAC1 (concentration giving Tm-shift threshold 1.0)
1,O=c1c2cc([N+](=O)[O-])cc([N+](=O)[O-])c2[nH]n1-c1ccccc1,4.84 µM
2,O=C(Nc1ccc(F)cc1)N[C@@H]1CC[C@H](CCn2cc(-c3ccc(F)cc3)nn2)O[C@H]1CO,13 µM
3,C[C@@H]1CN([C@@H](C)CO)S(=O)(=O)c2ccc(-c3cccc(C#N)c3)cc2O[C@@H]1CN(C)C(=O)Nc1cc(F)ccc1F,> 38 µM (inactive)
4,Cc1noc(C)c1NC(=O)N[C@@H]1C=C[C@H](CC(=O)Nc2ccc(-c3ccccc3)cc2)O[C@@H]1CO,5.28 µM
5,CN1C(=O)c2cc(NC(=O)c3cccc(F)c3)ccc2OC[C@@H]2O[C@H](CC(=O)NCc3ccccc3)CC[C@@H]21,21 µM
6,COc1cccc(C#Cc2ccc([C@H]3[C@H]4CN(S(=O)(=O)c5ccccc5C)CC(=O)N4[C@H]3CO)cc2)c1,16.6 µM
7,COc1ccccc1NC(=O)N[C@H]1CC[C@H](CCn2cc(-c3ccccc3OC)nn2)O[C@H]1CO,4.01 µM
8,COc1ccc(OC)c(Nc2ccc(Nc3cc(OC)ccc3OC)nn2)c1,8.4 µM
9,O=C(NCC[C@@H]1CC[C@@H](NC(=O)Nc2cc(F)ccc2F)[C@@H](CO)O1)Nc1ccc(F)cc1,18.1 µM
10,N#Cc1cccc(NC(=O)c2ccc(S(=O)(=O)N3CCOCC3)cc2)c1,4 µM
11,C/C(=N\NC(=O)c1ccc(NS(=O)(=O)c2cccs2)cc1)c1cccs1,3.06 µM
12,COc1ccc(N(CC(=O)N/N=C/c2ccc(OC)c(OC)c2)S(=O)(=O)c2ccccc2)cc1,18.5 µM
13,C=C1[C@@H](O)[C@H](Cc2ccccc2)N(Cc2ccccc2Br)S1(=O)=O,15.5 µM
14,C[C@@H]1CN([C@@H](C)CO)S(=O)(=O)c2ccc(-c3ccncc3)cc2O[C@@H]1CN(C)C(=O)Nc1ccc(F)cc1,4.72 µM
15,COc1ccc(-c2cn(CC[C@@H]3CC[C@@H](NC(=O)Nc4ccc(F)cc4)[C@H](CO)O3)nn2)cc1,12.8 µM
16,O=C1C(Cl)=C(NS(=O)(=O)c2ccc([N+](=O)[O-])cc2)C(=O)c2ccccc21,7.4 µM
17,COc1ccc(-c2ccc([C@H]3[C@@H](CO)N4CCCCN(C(=O)c5ccc6c(c5)OCO6)C[C@H]34)cc2)cc1,15.2 µM
18,Cc1ccc(NC(=O)CN2C(=O)NC(Cc3c[nH]c4ccccc34)C2=O)cc1 (stereo unspecified),16.2 µM
19,Nc1ccc(C(=O)Nc2ccc(OC(F)(F)C(F)F)c(NC(=O)c3ccc(N)cc3)c2)cc1,6.85 µM
20,Nc1ccc(C(=O)N/N=C/c2c[nH]c3ccccc23)cc1,3.41 µM

# More lines, now with the values ahead:
row,AbsAC1 (concentration giving Tm-shift threshold 1.0),Structure (SMILES)
1,14.8 µM,Cc1nc2c(C)cccc2cc1C(=O)N/N=C/c1ccc(O)cc1
2,> 19.5 µM (inactive),COc1ccc(Cc2nnc(NS(=O)(=O)c3ccccc3)s2)cc1
3,5.6 µM,CCN(CC)c1ccc2cc(S(=O)(=O)c3ccc(Cl)cc3)c(=O)oc2c1
4,5.37 µM,NC(=O)c1ccsc1NC(=O)COC(=O)CCCOc1ccccc1
5,14 µM,CCN(CC)S(=O)(=O)c1ccc(N/N=C(\C)c2ccc(OC)cc2O)nc1
6,19.9 µM,Cc1[nH]c2ccccc2c1N=Nc1cc(C(=O)O)cc(C(=O)O)c1
7,10.9 µM,COc1cc(-c2nc(C)c(C(C)=O)n2O)ccc1OCC(=O)Nc1ccc(Cl)cc1
8,6.95 µM,CCN1C(=O)C(CC(=O)Nc2ccc(OC)cc2)N(CCc2ccc(OC)cc2)C1=S (stereo unspecified)
9,8.45 µM,CCCC(=O)c1ccc(OCc2cn(CC(=O)c3ccc(O)cc3)nn2)cc1
10,> 38 µM (inactive),O=C(CNC(=O)c1cccc(Br)c1)N/N=C/c1cc(Br)cc(Br)c1O
11,1.74 µM,O=C(CCc1ccc(O)cc1)c1c(O)cc(O)cc1O
